In patent publication US12629354B2, “Sustained-release pharmaceutical compositions comprising of a sedative drug and uses thereof” (TAIWAN LIPOSOME CO., LTD., priority 2018, dated 2026):
Counter-ions that a name gives are not always drawn.

Columns and labels:
[1] = plasma free dialysis bag, within 2 hours
Description: Two in vitro release systems were used in the study, the first system was the plasma free environment and the second system was the human plasma environment. […] Each dialysis bag was immersed in 20 mL of PBS at pH 7.4 in a 50-mL centrifuge tube and incubated at 37±1° C. water bath for 168 or 72 hours. At designated time points after incubation (1, 2, 4, 6, 24, 50, 72, 100 and 168 hours of first system and 1, 2, 4, 8, 24, 48 and 72 hours of second system), 1.0 mL aliquot from the 20-mL PBS was sampled and 1.0 mL of fresh PBS was added to replenish the sampling aliquot. Drug concentrations of the sampled aliquots at each time point were analyzed using HPLC to create the in vitro release profile of the tested formulations.

[2] = in vivo; details: rat
Description: The rats were housed in a holding room which operated on a 12-hr light/12-hr dark circadian cycle with free access to water and food.
The rats were divided into two groups (n=4 in each group), one group received intramuscular (IM) injection of 100 μg/kg of free dexmedetomidine hydrochloride, prepared by dissolving the dexmedetomidine hydrochloride in 9.4% sucrose solution with a final concentration of 250 μg/mL. The other group received IM injection of 106 μg/kg of liposomal dexmedetomidine hydrochloride, prepared according to Example 1. Blood samples were collected at 15, 30 min, 1, 2, 4, 8, 24, 48, and 72 hours post-injection. Plasma samples were obtained by centrifugation, kept frozen at −80° C. and analyzed using liquid chromatography-tandem mass spectrometry. The plasma concentrations versus time curves were analyzed using a noncompartmental analysis model in PKSolver (Comput. Methods Programs Biomed. 2010; 99(3):306-314).

[3] = test system: guinea pigs; experiment: Pharmacodynamic study, pin prick test after intracutaneous injection of 4 formulations; assay type: in vivo; details: 1.5 mg ropivacaine with or without 0.2 μg L-DEX in the same injection
Description: The guinea pigs were housed in a holding room which operated on a 12-hr light/12-hr dark circadian cycle with free access to water and food.
Four guinea pigs were used in this study and each guinea pig received 4 intracutaneous injections of 4 different formulations on its back to create 4 individual wheals respectively (i.e., 4 wheals per formulation), as illustrated in FIG. 3A. […] Briefly, 339.0 mg of DMPC, 96.7 mg of cholesterol and 200.0 mg of ropivacaine were dissolved in 10 mL of tert-butanol and lyophilized. The lyophilized cake was hydrated with a 50 mM histidine solution, pH 6, to form multilamellar vesicles (MLVs) with entrapped ropivacaine (liposomal ropivacaine composition), and the concentration of ropivacaine was diluted to 15.0 mg/mL with 9.4% sucrose solution. The anesthesia effect of ropivacaine was assessed at 30 minutes (0.5 hour), 1.0, 1.5, 2.0, 2.5, 3.0, 3.5, 4.0, 5.0, 6.0, 7.0, 8.0, 10 and 24 hours post-injection. The anesthetic effect was determined by observing the guinea pig's response to stimuli around individual wheals (pin prick test). PD data obtained from the pin prick tests were analyzed using an inhibitory effect sigmoid Emax model in PKSolver (Comput Methods Programs Biomed. 2010; 99(3):306-314).

[4] = test system: guinea pigs; experiment: Pharmacodynamic study, pin prick test with L-DEX or saline injected intramuscularly at a distant site; assay type: in vivo; details: 1.5 mg ropivacaine intracutaneous, IM saline or 2.0 μg/kg L-DEX outside the pin prick area
Description: Four guinea pigs were used in this study and was divided into two groups (Groups A and B). […] Each guinea pig in Group A and Group B received 4 intracutaneous injections on its back. Of the 4 intracutaneous injections, 2 injections delivered 1.5 mg of free ropivacaine each and the other two injections delivered 1.5 mg of liposomal ropivacaine composition each. The anesthetic effect of ropivacaine was assessed at 30 minutes (0.5 hour), 1.0, 1.5, 2.0, 2.5, 3.0, 3.5, 4.0, 5.0, 6.0, 7.0, 8.0 and 10 hours post-injection. The anesthetic effect was determined by observing the guinea pig's response to stimuli around individual wheals (i.e., pin prick test). PD data obtained from the pin prick tests was analyzed using an inhibitory effect sigmoid Emax model in PKSolver (Comput Methods Programs Biomed. 2010; 99(3):306-314).

[5] = female, Sprague-Dawley, im, 100 ug/kg

Row | dexmedetomidine released [1] [%] | AUC(0-inf) [2, 5] [ng·h/mL] | AUC(0-t) [2, 5] [ng·h/mL] | Cmax [2, 5] [ng/mL] | half-life [2, 5] [h] | dexmedetomidine released as indicated by AUC0-t ([2]; female, Sprague-Dawley, im, 8 h) [%] | dexmedetomidine in the plasma of rats [2] | SMILES | TE50 (time to half maximal effect) [3] [h] | Non-response time [4] [h] | TE50 [4] [h]
1 | ~100 | 35.1 | 31.4 | 11 | 2.36 | 100 | undetectable | Cc1cccc([C@H](C)c2cnc[nH]2)c1C [Free Dexmedetomidine, dexmedetomidine hydrochloride] | – | – | –
2 | – | – | – | – | – | – | – | CCCN1CCCC[C@H]1C(=O)Nc1c(C)cccc1C [Free Ropivacaine, ropivacaine hydrochloride monohydrate] | 4.5 | 0.5 | 1.6
